{"source": "patent US6271233A", "about": "“Method for treating ocular neovascular diseases” (priority 1999, dated 2001)", "key": {"RTKs": {"tested_on": "RTKs", "settings": "in words; cited from earlier work"}, "[1]": {"tested_on": "all other tyrosine kinase and serine/threonine kinases tested", "assay": "Kinase assay, all other tyrosine kinase and serine/threonine kinases tested", "type": "biochemical", "settings": "in words"}, "PDGF receptors": {"tested_on": "PDGF receptors", "assay": "Cellular autophosphorylation assay, transfected Chinese hamster ovary cells: PDGF receptors", "type": "cell-based", "procedure": "(§1) In vivo activity requires drugs to enter cells and therefore agents are tested in cellular autophosphorylation assays, using Chinese hamster ovary cells transfected with one of several RTK genes."}, "c-erbB2": {"tested_on": "c-erbB2", "assay": "Cellular autophosphorylation assay, transfected Chinese hamster ovary cells: c-erbB2", "type": "cell-based", "procedure": "as §1"}, "[2]": {"tested_on": "retinal vascular development", "assay": "Retinal vascular development in neonatal mice", "type": "in vivo, mouse (C57/BL6J)", "method": "Litters of newborn C57/BL6J mice are divided into treatment and control groups which received daily subcutaneous injections of 10 mg/kg of drug or vehicle, respectively. […] The eyes are removed and fixed for 1 hour in 10% phosphate-buffered formalin. The cornea and lens are removed and the entire retina is carefully dissected from the eyecup, radially cut from the edge of the retina to the equator in all 4 quadrants, and flat-mounted in Aquamount with photoreceptors facing upward."}, "c-Kit": {"target": "T1, c-Kit (Homo sapiens, UniProt P10721)", "T1 construct": "expressed in transfected cells; host or cells: Chinese hamster ovary cells", "T1 sequence (P10721 26-976)": "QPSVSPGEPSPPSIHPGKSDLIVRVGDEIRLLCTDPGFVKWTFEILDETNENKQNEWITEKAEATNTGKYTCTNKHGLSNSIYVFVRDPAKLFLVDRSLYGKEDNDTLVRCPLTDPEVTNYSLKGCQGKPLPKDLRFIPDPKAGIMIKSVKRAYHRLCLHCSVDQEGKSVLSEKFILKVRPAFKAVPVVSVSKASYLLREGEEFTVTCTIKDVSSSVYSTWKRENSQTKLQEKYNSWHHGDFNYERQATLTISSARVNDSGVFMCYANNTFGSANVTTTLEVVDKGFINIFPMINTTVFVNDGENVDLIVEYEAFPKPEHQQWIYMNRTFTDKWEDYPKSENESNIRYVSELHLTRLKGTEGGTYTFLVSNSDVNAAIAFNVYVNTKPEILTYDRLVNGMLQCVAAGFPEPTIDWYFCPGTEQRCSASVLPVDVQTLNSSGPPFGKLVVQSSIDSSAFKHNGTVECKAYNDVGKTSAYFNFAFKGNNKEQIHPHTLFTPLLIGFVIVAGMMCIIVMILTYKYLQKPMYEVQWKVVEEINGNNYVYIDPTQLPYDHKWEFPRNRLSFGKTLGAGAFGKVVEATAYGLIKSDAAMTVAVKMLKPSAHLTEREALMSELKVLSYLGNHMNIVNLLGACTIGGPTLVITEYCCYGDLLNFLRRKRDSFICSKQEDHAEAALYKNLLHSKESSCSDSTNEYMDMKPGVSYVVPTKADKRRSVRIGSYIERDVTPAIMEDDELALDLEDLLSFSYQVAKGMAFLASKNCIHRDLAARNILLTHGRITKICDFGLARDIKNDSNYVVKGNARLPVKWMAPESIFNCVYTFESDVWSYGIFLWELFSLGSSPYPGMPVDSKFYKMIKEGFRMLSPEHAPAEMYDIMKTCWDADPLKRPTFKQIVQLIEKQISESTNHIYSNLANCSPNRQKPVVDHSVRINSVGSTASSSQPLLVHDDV", "type": "cell-based", "settings": "transfected Chinese hamster ovary cells", "procedure": "as §1"}, "[3]": {"tested_on": "choroidal neovascularization", "assay": "Laser-induced choroidal neovascularization in mice", "settings": "50 mg/kg/day by gavage", "method": "Choroidal neovascularization is generated by modification of a previously described technique. […] Three burns of krypton laser photocoagulation (100pm spot size, 0.1 seconds duration, 150 mW) are delivered to each retina using the slit lamp delivery system of a Coherent Model 920 Photocoagulator and a hand held cover slide as a contact lens. Burns are performed in the 9, 12, and 3 o'clock positions of the posterior pole of the retina. Production of a bubble at the time of laser, which indicates rupture of Bruch's membrane, is an important factor in obtaining CNV ^16, so only mice in which a bubble is produced for all three burns are included in the study. Ten mice are randomly assigned to treatment with vehicle alone and 10 mice received vehicle containing 120 μmoles/kg/day of one of the test drugs given orally by gavage. After 14 days, the mice are killed with an overdose of pentobarbital sodium, and their eyes are rapidly removed and frozen in optimal cutting temperature embedding compound (OCT).\nAfter a 10 minute wash in 0.05 M Tris buffer, pH 7.6, slides are developed in Histomark Red (Kirkegaard and Perry) to give a red reaction product, and mounted with Cytoseal (Stephens Scientific, Riverdale, N.J.). Some slides are counterstained with Contrast Blue (Kirkegaard and Perry).\nFor each lesion, area measurements are made for all sections on which some of the lesion appeared and added together to give the integrated area measurement. Values are averaged to give one experimental value per mouse. A 2-sample t-test for unequal variances is performed to compare the log mean integrated area between treatment and control mice."}, "insulin receptor": {"tested_on": "insulin receptor", "assay": "Cellular autophosphorylation assay, transfected Chinese hamster ovary cells: insulin receptor", "type": "cell-based"}, "VEGF receptors": {"tested_on": "VEGF receptors", "assay": "Cellular autophosphorylation assay, transfected Chinese hamster ovary cells: VEGF receptors", "type": "cell-based", "procedure": "as §1"}, "Flt-1": {"target": "T2, Flt-1 (Homo sapiens, UniProt P17948)", "T2 construct": "kinase domains of human VEGF receptors 1 and 2", "T2 sequence (P17948 827-1158 limits assumed)": "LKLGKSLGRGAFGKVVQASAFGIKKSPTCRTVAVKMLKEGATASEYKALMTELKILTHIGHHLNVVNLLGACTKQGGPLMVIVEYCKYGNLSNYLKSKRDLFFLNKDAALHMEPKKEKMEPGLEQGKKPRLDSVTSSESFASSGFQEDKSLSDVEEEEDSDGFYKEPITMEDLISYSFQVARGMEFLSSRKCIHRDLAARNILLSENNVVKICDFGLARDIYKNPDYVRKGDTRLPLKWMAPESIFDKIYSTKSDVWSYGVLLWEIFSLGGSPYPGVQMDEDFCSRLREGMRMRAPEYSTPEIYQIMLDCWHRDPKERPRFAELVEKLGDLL", "assay": "Tyrosine kinase assay, phosphorylation of poly(GluTyr) by GST-fusion kinase domain: Flt-1", "type": "biochemical", "settings": "in words"}, "[4]": {"tested_on": "retinal neovascularization", "settings": "pigs; cited from earlier work"}, "retinal blood vessels": {"tested_on": "retinal blood vessels", "settings": "administration of exogenous VEGF; cited from earlier work"}, "[5]": {"tested_on": "other RTKs including VEGF receptors", "assay": "Kinase assay, other RTKs including VEGF receptors", "type": "biochemical", "settings": "in words"}}}
{"compound": "O=c1c(-c2ccc(O)cc2)coc2cc(O)cc(O)c12", "note": "[Genistein, 4',5,7-trihydroxyisoflavone]", "values": [{"measurement": "inhibition of RTKs", "setting": "RTKs", "value": "relatively weak, nonspecific inhibitor"}]}
{"compound": "Clc1ccc(Nc2nnc(Cc3ccncc3)c3ccccc23)cc1", "note": "[CGP 79787D]", "values": [{"measurement": "inhibition of phosphorylation by all other kinases tested", "setting": "[1]", "value": "poor inhibitor"}, {"measurement": "inhibition of autophosphorylation of PDGF receptors", "setting": "PDGF receptors", "value": "inhibits autophosphorylation"}, {"measurement": "inhibition of autophosphorylation of c-erbB2", "setting": "c-erbB2", "value": "poor inhibitor"}, {"measurement": "extent of retinal vessels at P7", "setting": "[2]; 10 mg/kg daily s.c. from P0, P7", "value": "only extended about half way to the periphery"}, {"measurement": "extent of superficial capillary bed at P10", "setting": "[2]; 10 mg/kg daily s.c. from P0, P10", "value": "has not yet reached the edge of the retina"}, {"measurement": "significance of differences in retinal vascular development versus vehicle", "setting": "[2]; 10 mg/kg daily s.c., P7 and P10, FIG. 5", "value": "highly significant"}, {"measurement": "inhibition of autophosphorylation of c-Kit", "setting": "c-Kit", "value": "inhibits autophosphorylation"}, {"measurement": "appearance of overlying retinal vessels", "setting": "[3]; two weeks after laser", "value": "appeared normal"}, {"measurement": "choroidal neovascularization at laser-induced rupture sites of Bruch's membrane", "setting": "[3]; two weeks after laser", "value": "very little if any choroidal neovascularization"}, {"measurement": "integrated area of lectin staining per lesion", "setting": "[3]; n=5, vehicle 0.0713812±0.0066723 mm^2", "value": "0.01124±0.001483", "unit": "mm^2"}, {"measurement": "inhibition of autophosphorylation of insulin receptor", "setting": "insulin receptor", "value": "poor inhibitor"}, {"measurement": "inhibition of autophosphorylation of VEGF receptors", "setting": "VEGF receptors", "value": "inhibits autophosphorylation"}, {"measurement": "inhibition of phosphorylation by the kinase domain of human VEGF receptor 1", "setting": "Flt-1", "value": "good inhibitor"}]}
{"compound": "CN(C)C[C@@H]1CCn2cc(c3ccccc32)C2=C(C(=O)NC2=O)c2cn(c3ccccc23)CCO1", "note": "[LY 333531]", "values": [{"measurement": "inhibition of retinal neovascularization after laser-induced branch vein occlusion", "setting": "[4]", "value": "partially inhibited retinal neovascularization"}]}
{"compound": "VEGF", "values": [{"measurement": "hyperoxia-induced regression of retinal blood vessels", "setting": "retinal blood vessels", "value": "prevented"}]}
{"compound": "Cc1ccc(NC(=O)c2ccccc2)cc1Nc1nccc(-c2cccnc2)n1", "note": "[CGP 53 716]", "values": [{"measurement": "inhibition of autophosphorylation of PDGF receptors", "setting": "PDGF receptors", "value": "potent inhibitors"}, {"measurement": "inhibition of other RTKs including VEGF receptors", "setting": "[5]", "value": "little or no inhibitory activity"}, {"measurement": "inhibition of autophosphorylation of VEGF receptors", "setting": "VEGF receptors", "value": "poor inhibitors"}]}
